The text below walks through data of patent publication US6953812B2, “Glucagon antagonists/inverse agonists” (Novo Nordisk, Inc., priority 2000, dated 2005).

One test deals with T1, human GIP receptor (Homo sapiens, UniProt P48546).
T1 construct: expressed in transfected cells; host or cells: BHK (baby hamster kidney) cells, membrane preparation
T1 sequence (P48546 22-466): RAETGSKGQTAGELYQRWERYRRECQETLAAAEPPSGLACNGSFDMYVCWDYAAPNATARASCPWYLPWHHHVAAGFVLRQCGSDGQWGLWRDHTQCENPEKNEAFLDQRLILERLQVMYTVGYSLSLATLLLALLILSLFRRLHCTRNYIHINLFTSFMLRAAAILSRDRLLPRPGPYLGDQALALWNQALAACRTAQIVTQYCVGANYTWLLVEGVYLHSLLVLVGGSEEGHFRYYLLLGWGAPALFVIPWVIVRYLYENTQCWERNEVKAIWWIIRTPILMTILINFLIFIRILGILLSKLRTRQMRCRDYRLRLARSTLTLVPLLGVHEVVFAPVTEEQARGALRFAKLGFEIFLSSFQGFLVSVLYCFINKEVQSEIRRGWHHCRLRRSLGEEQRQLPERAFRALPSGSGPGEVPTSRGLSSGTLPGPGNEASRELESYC
Nature of the test: GIP Binding Assay. The following applies: membranes of BHK cells transfected with human GIP receptor, 125I-GIP, SPA; read-out: GIP Bd Assay IC50. How it is done:
BHK (baby hamster kidney cell line) cells are transfected with the human GIP receptor and a membrane preparation of the cells is prepared.
(§1) All steps in the membrane preparation are kept on ice or performed at 4° C. BHK cells are harvested and centrifuged. The pellet is resuspended in homogenisation buffer (25 mM) HEPES, pH=7.4, 2.5 mM CaCl2, 1.0 mM MgCl2, 250 mg/L bacitracin, 0.1 mM Pefabloc), homogenised 2×10 sec using Polytron 10-35 homogenizer (Kinematica) and added the same amount of homogenisation buffer as used for resuspension. After centrifugation (15 min at 2000×g) the supernatant is transferred to cold centrifuge tubes and centrifuged for 45 min at 40.000×g. The pellet is resuspended in homogenisation buffer, homogenised 2×10 sec (Polytron) and additional homogenisation buffer is added. The suspension is centrifuged for 45 min at 40.000×g and the pellet is resuspended in resuspension buffer (25 mM HEPES, pH=7.4, 2.5 mM CaCl2, 1.0 mM MgCl2) and homogenised 2×10 sec. (Polytron). […] Stabilisation buffer (25 mM HEPES, pH=7.4, 2.5 mM CaCl2, 1.0 mM MgCl2, 1% bovine serum albumin, 500 mg/L bacitracin, 2.5 M sucrose) is added and the membrane preparation is stored at −80° C.
The GIP binding assay is carried out in opti plates (Polystyrene Microplates, Packard). 50 μL assay buffer (25 mM HEPES, pH=7.5, 2.5 mM CaCl2, 1.0 mM MgCl2, 0.003% Tween-20, 0.005% bacitracin, 0.05% sodium azide) and 5 μL GIP or test compound (in DMSO) are added to each well. […] Finally 50 μL WGA beads containing 1 mg beads are transferred to the well. The opti plates are incubated for 3.5 hours on a shaker and then settled for 8-48 hours. The opti plates are counted in a Top-counter. Non-specific binding is determined with 500 nM of GIP.

The next test concerns the target T2, human glucagon receptor (Homo sapiens, UniProt P47871).
T2 construct: expressed in transfected cells; host or cells: BHK (baby hamster kidney) cells, membrane preparation
Nature of the test: Glucagon Binding Assay (II). As to conditions: membranes of BHK cells transfected with human glucagon receptor, 125I-glucagon, SPA; read-out: Glu Bd Assay (II) IC50. How it is done: Glucagon Binding Assay (II)
BHK (baby hamster kidney cell line) cells are transfected with the human glucagon receptor and a membrane preparation of the cells is prepared.
as §1, with “mM” for “mM)”
The glucagon binding assay is carried out in opti plates (Polystyrene Microplates, Packard). 50 μL assay buffer (25 mM HEPES, pH=7.5, 2.5 mM CaCl2, 1.0 mM MgCl2, 0.003% Tween-20, 0.005% bacitracin, 0.05% sodium azide) and 5 μL glucagon or test compound (in DMSO) are added to each well. […] Finally 50 μL WGA beads containing 1 mg beads are transferred to the well. The opti plates are incubated for 4 hours on a shaker and then settled for 8-48 hours. The opti plates are counted in a Topcounter. Non-specific binding is determined with 500 nM of glucagon.

Each structure is given as a SMILES string.

T2 sequence (P47871 26-477): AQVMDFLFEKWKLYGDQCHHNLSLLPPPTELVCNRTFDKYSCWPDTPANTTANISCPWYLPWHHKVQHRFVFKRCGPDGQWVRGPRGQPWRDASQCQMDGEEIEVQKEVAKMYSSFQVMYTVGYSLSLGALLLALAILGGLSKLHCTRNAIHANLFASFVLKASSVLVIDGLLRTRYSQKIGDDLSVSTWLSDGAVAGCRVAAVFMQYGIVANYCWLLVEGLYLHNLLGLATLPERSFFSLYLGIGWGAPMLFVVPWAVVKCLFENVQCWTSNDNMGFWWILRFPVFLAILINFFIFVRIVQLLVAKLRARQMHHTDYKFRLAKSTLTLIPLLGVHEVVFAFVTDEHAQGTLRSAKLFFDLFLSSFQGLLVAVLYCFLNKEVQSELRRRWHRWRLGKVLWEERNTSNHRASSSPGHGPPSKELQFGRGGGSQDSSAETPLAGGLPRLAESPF

Turning to `O=C(NC[C@@H](O)C(=O)O)c1ccc(CN(C(=O)Nc2cccc(C(F)(F)F)c2)c2ccc(C3CCCCC3)cc2)cc1` [Example 5, (R)-3-{4-[1-(4-Cyclohexylphenyl)-3-(3-trifluoromethylphenyl)ureidomethyl]benzoylamino}-2-hydroxypropionic acid], the figures for the IC50 at human GIP receptor and on human glucagon receptor were 519 nM and 26 nM, respectively.

Turning to `O=C(NC[C@@H](O)C(=O)O)c1ccc(CN(C(=O)Cc2ccc3ccccc3c2)c2ccc(C3CCCCC3)cc2)cc1` [Example 71, (R)-3-(4-{[(4-Cyclohexylphenyl)-(2-naphthylacetyl)amino]methyl}benzoylamino)-2-hydroxypropionic acid], the concentration for half-maximal inhibition (IC50) is above 3000 nM at human GIP receptor and 886 nM on human glucagon receptor.

Take `O=C(NC[C@@H](O)C(=O)O)c1ccc(CN(C(=O)Nc2cc(F)cc(F)c2)c2ccc(C3CCCCC3)cc2)cc1` [Example 55, (R)-3-{4-[1-(4-Cyclohexylphenyl)-3-(3,5-difluorophenyl)ureidomethyl]benzoylamino}-2-hydroxypropionic acid]: the IC50 at human GIP receptor worked out at 427 nM; on human glucagon receptor it was 50 nM.

On to `O=C(NC[C@@H](O)C(=O)O)c1ccc(CN(C(=O)NCc2ccccc2)c2ccc(C3=CCCCC3)cc2)cc1` [Example 22, (R)-3-{4-[3-Benzyl-1-(4-cyclohex-1-enylphenyl)ureidomethyl]benzoylamino}-2-hydroxypropionic acid], for which the IC50 at human GIP receptor amounted to 2270 nM; at human glucagon receptor it was 354 nM.

For `COc1cc(NC(=O)N(Cc2ccc(C(=O)NC[C@@H](O)C(=O)O)cc2)c2ccc(C3=CCCCC3)cc2)cc(C(F)(F)F)c1` [Example 10, (R)-3-{4-[1-(4-Cyclohex-1-enylphenyl)-3-(3-methoxy-5-trifluoromethylphenyl)ureidomethyl]benzoylamino}-2-hydroxypropionic acid], the IC50 on human GIP receptor is 294 nM; at human glucagon receptor, 19 nM.

Turning to `CC(C)(C)c1ccc(N(Cc2ccc(C(=O)NC[C@@H](O)C(=O)O)cc2)C(=O)Nc2ccc(Cl)c(Cl)c2)cc1` [Example 40, (R)-3-{4-[1-(4-tert-butylphenyl)-3-(3,4-dichlorophenyl)ureidomethyl]benzoylamino}-2-hydroxypropionic acid], the values for the concentration for half-maximal inhibition (IC50) on human GIP receptor and on human glucagon receptor were 800 nM and 107 nM, respectively.

`CC(C)(C)c1ccc(N(Cc2ccc(C(=O)NC[C@@H](O)C(=O)O)cc2)C(=O)Nc2ccc(F)c(F)c2)cc1` [Example 46, (R)-3-{4-[1-(4-tert-Butylphenyl)-3-(3,4-difluorophenyl)ureidomethyl]benzoylamino}-2-hydroxypropionic acid]: the IC50 amounted to 1170 nM at human GIP receptor and 507 nM on human glucagon receptor.

In the case of `O=C(NC[C@@H](O)C(=O)O)c1ccc(CN(CC(c2ccccc2)c2ccccc2)C(=O)c2csc3ccc(Cl)cc23)cc1` [Example 59, (R)-3-(4-{[(5-Chlorobenzo[b]thiophene-3-carbonyl)-(2,2-diphenylethyl)amino]methyl}benzoylamino)-2-hydroxypropionic acid], the results for the IC50 on human GIP receptor and at human glucagon receptor were above 3000 nM and 594 nM, respectively.

In the case of `CC(C)(C)C1CCC(N(Cc2ccc(C(=O)NC[C@@H](O)C(=O)O)cc2)C(=O)Cc2cc(F)cc(C(F)(F)F)c2)CC1` (stereo partly drawn) [Example 57, (R)-3-[4-({(4-tert-Butylcyclohexyl)-[2-(3-fluoro-5-trifluoromethylphenyl)acetyl]amino}methyl)benzoylamino]-2-hydroxypropionic acid], the IC50 was above 3000 nM at human GIP receptor and 439 nM at human glucagon receptor.

For the compound `CC(=O)c1ccc(NC(=O)N(Cc2ccc(C(=O)NC[C@@H](O)C(=O)O)cc2)c2ccc(C3CCCCC3)cc2)cc1` [Example 53, (R)-3-{4-[3-(4-Acetylphenyl)-1-(4-cyclohexylphenyl)ureidomethyl]benzoylamino}-2-hydroxypropionic acid], the IC50 was above 3000 nM on human GIP receptor and 390 nM on human glucagon receptor.

Regarding `O=C(NCC(F)C(=O)O)c1ccc(CN(C(=O)Nc2cc(Cl)cc(Cl)c2)c2ccc(C3=CCCCC3)cc2)cc1` (racemic) [Example 23, (RS)-3-{4-[1-(4-Cyclohex-1-enylphenyl)3-(3,5-dichlorophenyl)ureidomethyl]benzoylamino}-2-fluoropropionic acid], the IC50 on human GIP receptor was determined as 516 nM; on human glucagon receptor, 40 nM.

For the compound `O=C(NC[C@@H](O)C(=O)O)c1ccc(CN(C(=O)Cc2cc(F)cc(C(F)(F)F)c2)c2ccc(C3CCCCC3)cc2)cc1` [Example 65, (R)-3-[4-({(4-Cyclohexylphenyl)-[(3-fluoro-5-trifluoromethylphenyl)acetyl]amino}methyl)benzoylamino]-2-hydroxypropionic acid], the IC50 on human GIP receptor was above 3000 nM; on human glucagon receptor, 520 nM.

Consider `O=C(NC[C@@H](O)C(=O)O)c1ccc(CN(C(=O)Nc2ccc(Cl)c(Cl)c2)c2ccc(C3=CCCCC3)cc2)cc1` [Example 52, (R)-3-{4-[1-(4-Cyclohex-1-enylphenyl)-3-(3,4-dichlorophenyl)ureidomethyl]benzoylamino}-2-hydroxypropionic acid], for which the IC50 on human GIP receptor is 341 nM; on human glucagon receptor, 47 nM.

Consider `COc1cc(NC(=O)N(Cc2ccc(C(=O)NC[C@@H](O)C(=O)O)cc2)c2ccc(C3CCCCC3)cc2)cc(C(F)(F)F)c1` [Example 1, (R)-3-{4-[1-(4-Cyclohexylphenyl)-3-(3methoxy-5-trifluoromethylphenyl)ureidomethyl]benzoylamino}-2-hydroxypropionic acid], for which the values for the IC50 on human GIP receptor and on human glucagon receptor were 701 nM and 29 nM, respectively.

Regarding `O=C(NC[C@@H](O)C(=O)O)c1ccc(CN(C(=O)Nc2ccc(F)c(F)c2)c2ccc(C3CCCCC3)cc2)cc1` [Example 47, (R)-3-{4-[1-(4-Cyclohexylphenyl)-3-(3,4-difluorophenyl)ureidomethyl]benzoylamino}-2-hydroxypropionic acid], the IC50 on human GIP receptor came out at 665 nM; at human glucagon receptor it was 64 nM.

With `CSc1cccc(NC(=O)N(Cc2ccc(C(=O)NC[C@@H](O)C(=O)O)cc2)c2ccc(C3CCCCC3)cc2)c1` [Example 29, (R)-3-{4-[1-(4-Cyclohexylphenyl)-3-(3-methylsulfanylphenyl)ureidomethyl]benzoylamino}-2-hydroxypropionic Acid], the IC50 at human GIP receptor was 623 nM; on human glucagon receptor it was 24 nM.

In the case of `O=C(NC[C@@H](O)C(=O)O)c1ccc(CN(C(=O)CCc2cccc([N+](=O)[O-])c2)c2ccc(C3CCCCC3)cc2)cc1` [Example 73, (R)-3-[4-({(4-Cyclohexylphenyl)-[3-(3-nitrophenyl)propionyl]amino}methyl)benzoylamino]-2-hydroxypropionic acid], the IC50 at human GIP receptor is above 3000 nM; on human glucagon receptor, 680 nM.
